Measurements reported in publication PMC4433804 (Nature chemical biology, 2015).

Molecular target: RPE65 (bovine RPE microsomes as the enzyme source) (Bos taurus, UniProt Q28175)
Assay: in vitro retinoid isomerase activity assay
Type: biochemical

Sequence of UniProt Q28175 (Q28175 whole entry): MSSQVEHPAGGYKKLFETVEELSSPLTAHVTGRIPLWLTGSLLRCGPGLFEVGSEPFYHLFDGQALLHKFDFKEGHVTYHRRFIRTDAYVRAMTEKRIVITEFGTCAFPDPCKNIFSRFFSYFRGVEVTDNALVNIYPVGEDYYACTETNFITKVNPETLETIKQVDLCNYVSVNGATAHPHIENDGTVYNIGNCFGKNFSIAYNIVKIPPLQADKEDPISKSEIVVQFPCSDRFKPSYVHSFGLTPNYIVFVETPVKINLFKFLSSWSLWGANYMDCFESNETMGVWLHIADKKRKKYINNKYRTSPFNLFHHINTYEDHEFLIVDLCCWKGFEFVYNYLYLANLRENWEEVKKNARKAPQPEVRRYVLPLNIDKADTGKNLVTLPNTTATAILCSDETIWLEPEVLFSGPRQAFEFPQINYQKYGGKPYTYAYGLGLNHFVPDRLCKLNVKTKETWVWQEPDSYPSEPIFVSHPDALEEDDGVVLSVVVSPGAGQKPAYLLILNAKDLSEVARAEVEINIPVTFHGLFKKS

Q: How did the IC50 turn out when CC1=C(COc2cccc([C@H](O)CCN)c2)C(C)(C)CCC1 [MB-001, (R)-3-amino-1-(3-((2,6,6-trimethylcyclohex-1-en-1-yl)methoxy)phenyl)propan-1-ol] was run?
A: 396 ± 58 nM
